Assay results as given in publication PMC5886804 (Nature, 2018).

Columns and labels:
[1] = target: MmTPC1 Leu11Ala/Ile12Ala (plasma membrane-targeting, considered as the wild type channel) (Mus musculus, UniProt Q9EQJ0, I12A/L11A/R540Q); experiment: inside-out patch clamp, HEK293 cells; type: cell-based
[2] = target: Mouse TPC1 (two-pore channel 1) (mouse) (UniProt Q9EQJ0); experiment: cryo-EM structure

Row | EC50 [1] | stoichiometry N [2] | Molecule
1 | ~145 nM |  | CCCCCCCC(=O)OC[C@H](COP(=O)(O)O[C@@H]1[C@H](O)[C@H](OP(=O)(O)O)[C@@H](O)[C@H](OP(=O)(O)O)[C@H]1O)OC(=O)CCCCCCC [PtdIns(3,5)P2]
2 |  | 2 | Mouse TPC1 (two-pore channel 1) (from UniProt Q9EQJ0-1 1-817) (natural protein)
